Patent US10760050B2, “Method for producing retinal pigment epithelial cells” (SUMITOMO CHEMICAL COMPANY, LIMITED, priority 2013, dated 2020)

Test system: Human ES cells (KhES-1-derived)
Assay: Adhesion culture of cells dispersed from human ES cell-derived aggregates with added factors; level of epithelial formation observed under a microscope (Example 5)
Type: cell-based
Conditions: observed at day 40, compared to the control free of the addition
Method: Human ES cells (KhES-1-derived) were cultured according to the methods described in “Ueno, M. et al. PNAS 2006, 103(25), 9554-9559” and “Watanabe, K. et al. Nat Biotech 2007, 25, 681-686”. As the medium, a medium obtained by adding 20% KSR KNOCKOUT™ Serum Replacement; Invitrogen), 0.1 mM 2-mercaptoethanol, 2 mM L-glutamine, 1× non-essential amino acid, 5 ng/ml bFGF to DMEM/F12 medium (Sigma) was used. The cultured ES cells were dispersed into single cells using TrypLE Express (Invitrogen), and the above-mentioned cultured ES cells were suspended in 100 μl of a serum-free medium at 1.2×10^4 cells per one well of a non-cell adhesive 96 well culture plate (sumilon spheroid plates, SUMITOMO BAKELITE Co., Ltd.) to allow for rapid formation of aggregates and subjected to culture at 37° C., 5% CO2. As the serum-free medium therefor, a serum-free medium obtained by adding 10% KSR, 450 μM 1-monothioglycerol, 1× Chemically defined lipid concentrate, 20 μM Y27632 to a 1:1 mixture of F-12 medium and IMDM medium was used. At day 3 from the start of the floating culture, BMP4 was added al a concentration 1.5 nM, and floating culture was continued. A half amount of the culture medium in the well was exchanged every 3 days with the above-mentioned medium not supplemented with a substance acting on the BMP signal transduction pathway. […]

Cc1c[nH]c(-c2cnc(NCCNc3ccc(C#N)cn3)nc2-c2ccc(Cl)cc2Cl)n1 [CHIR99021]
level of epithelial formation (pigmentation of retinal pigment epithelial cells) (3 μM added at day 24 from the start of the floating culture, FIG. 5B): differentiated into darker retinal pigment epithelial cells

B1: recombinant human BMP4 protein: BMP protein, a substance acting on the BMP signal transduction pathway (protein, UniProt P12644 293-408, looked up)
Bone morphogenetic protein 4: SPKHHSQRARKKNKNCRRHSLYVDFSDVGWNDWIVAPPGYQAFYCHGDCPFPLADHLNSTNHAIVQTLVNSVNSSIPKACCVPTELSAISMLYLDEYDKVVLKNYQEMVVEGCGCR
level of epithelial formation (uniformity of epithelium) (1 nM added at day 24, FIG. 5E): more uniform epithelium
